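The compound was tested at five concentrations on cells cultured in 96-well plates, with a 48-hour exposure period. TGI: total growth inhibition.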

Among the test systems are SK-MEL-5 melanoma; CAKI-1 renal; SN12C renal; NCI-H226 lung; K-562 leukemia; BT-549 breast; IGROV1 ovarian; SF-295 CNS; HT29 colon; MALME-3M melanoma; MDA-MB-435; KM12 colon; PC-3 prostate; OVCAR-3 ovarian; NCI-H23 lung; M14 melanoma; NCI/ADR-RES ovarian; T-47D breast.
Assay in all cases: DTP human tumour cell line panel, 48 h

`OCC1C2CCC3(OCCO3)C12` (stereo unspecified): the TGI in the assay with SK-MEL-5 melanoma is more than 100 µM; in the assay on CAKI-1 renal, more than 100 µM; in the assay on SN12C renal it was more than 100 µM; with NCI-H226 lung, more than 100 µM; in the assay on K-562 leukemia, more than 100 µM; in the assay with BT-549 breast it was 35.6 µM. For the same molecule, the TGI with IGROV1 ovarian, in the assay with SF-295 CNS, in the assay on HT29 colon, in the assay with MALME-3M melanoma, in the assay with MDA-MB-435 and in the assay on KM12 colon was more than 100 µM each time. The TGI in the assay with PC-3 prostate is more than 100 µM; with OVCAR-3 ovarian it was more than 100 µM; in the assay on NCI-H23 lung, 33.7 µM; in the assay on M14 melanoma, more than 100 µM; with NCI/ADR-RES ovarian, more than 100 µM.

As to `O=c1oc2ccc3ccccc3c2cc1-c1nc(-c2ccc([N+](=O)[O-])cc2)n[nH]1`, the TGI in the assay on SK-MEL-5 melanoma is more than 100 µM; in the assay with CAKI-1 renal it was more than 100 µM; in the assay on K-562 leukemia, more than 100 µM; with BT-549 breast, 79.8 µM; in the assay with IGROV1 ovarian, 51.8 µM; in the assay on SF-295 CNS, more than 100 µM. Further, the TGI with HT29 colon, in the assay with MALME-3M melanoma, with MDA-MB-435, with KM12 colon, in the assay on PC-3 prostate and in the assay with OVCAR-3 ovarian was more than 100 µM throughout. Also, the TGI in the assay with NCI-H23 lung was 45.8 µM; in the assay with M14 melanoma, more than 100 µM; in the assay on NCI/ADR-RES ovarian, more than 100 µM.

Turning to `CCOc1ccc(N2C(=O)NC3(c4ccccc4)N(C)C(=O)N(C)C23c2ccccc2)cc1` (stereo unspecified), the TGI in the assay with SK-MEL-5 melanoma, with CAKI-1 renal, in the assay on SN12C renal, in the assay on NCI-H226 lung, with K-562 leukemia and with BT-549 breast was more than 100 µM each time. In addition, the TGI in the assay with IGROV1 ovarian, in the assay with SF-295 CNS, with HT29 colon, in the assay on MALME-3M melanoma, in the assay on MDA-MB-435 and in the assay on KM12 colon was more than 100 µM throughout. Also, the TGI in the assay with PC-3 prostate, in the assay on OVCAR-3 ovarian, in the assay on NCI-H23 lung, in the assay with M14 melanoma and with NCI/ADR-RES ovarian was more than 100 µM each time.

As to `COc1ccc(C(=O)N2CCN(c3ccc4c(c3)OCC(=O)N4)CC2)cc1OC`, the TGI with SK-MEL-5 melanoma, in the assay on SN12C renal, in the assay on NCI-H226 lung, in the assay with BT-549 breast, with IGROV1 ovarian and in the assay on SF-295 CNS was more than 100 µM throughout. In addition, the TGI in the assay on HT29 colon, in the assay on MALME-3M melanoma, with MDA-MB-435, in the assay on KM12 colon, in the assay with PC-3 prostate and in the assay on OVCAR-3 ovarian was more than 100 µM each time. Further, the TGI with NCI-H23 lung, in the assay on M14 melanoma, with T-47D breast and in the assay on NCI/ADR-RES ovarian was more than 100 µM throughout.

As for `C=C1C2C[C@@H]3O[C@H]4C[C@H]5O[C@@]6(C[C@@H]7O[C@]8(C[C@H](C)[C@@H]9O[C@@H]%10CC(C=O)O[C@@H]%10C[C@@H]9O8)C[C@H](C)[C@@H]7O6)C[C@H]5O[C@H]4[C@H](C)[C@H]3OC(=O)C[C@H]3CC[C@@H]4OC5[C@H]6O[C@]7(CC[C@H]8CC(=C)[C@H](CC[C@@H](C[C@H]1C)O2)O8)CC6O[C@@H]5[C@@H](O7)[C@H]4O3` (stereo partly specified), the TGI is more than 1 µM in the assay with SK-MEL-5 melanoma; more than 1 µM with CAKI-1 renal; more than 1 µM in the assay with SN12C renal; 0.0119 µM with NCI-H226 lung; more than 1 µM with K-562 leukemia; less than 0.0001 µM with BT-549 breast. The TGI in the assay with IGROV1 ovarian is more than 1 µM; with SF-295 CNS, more than 1 µM; in the assay on MDA-MB-435 it was less than 0.0001 µM; with PC-3 prostate it was more than 1 µM; with OVCAR-3 ovarian, more than 1 µM; with NCI-H23 lung, 0.00195 µM. The TGI in the assay with M14 melanoma and in the assay with T-47D breast was more than 1 µM in each case.

For the molecule `C=C[C@]1(C)CC(=O)C(C(C)C=O)[C@]12C(=O)Oc1cccc(C)c1C2=O` (stereo partly specified), the TGI with SK-MEL-5 melanoma is 25.9 µM; in the assay on CAKI-1 renal, 27.6 µM; in the assay with SN12C renal, 30.3 µM; in the assay on NCI-H226 lung, 35 µM; in the assay with K-562 leukemia, 53.2 µM; with BT-549 breast, 28.4 µM. The concentration for total growth inhibition (TGI) with SF-295 CNS was found to be 28.9 µM; with HT29 colon, 27.6 µM; in the assay on MALME-3M melanoma, 34.5 µM; in the assay on MDA-MB-435 it was 29.3 µM; in the assay with KM12 colon it was 28.8 µM; in the assay with PC-3 prostate, 26.3 µM. Also, the TGI with OVCAR-3 ovarian was 29.6 µM; in the assay with NCI-H23 lung, 33.2 µM; in the assay with M14 melanoma it was 29.8 µM; in the assay on T-47D breast, 34.1 µM.

Take `CC1=NN(c2cccc(Cl)c2)C2(C1=Cc1cccs1)C(Cl)C(=O)N2c1nc2ccccc2s1` (stereo unspecified): the TGI is 36.2 µM in the assay on SK-MEL-5 melanoma; 84.5 µM in the assay with CAKI-1 renal; 53.5 µM in the assay on NCI-H226 lung; 72.4 µM in the assay with K-562 leukemia; 49.4 µM in the assay on BT-549 breast; more than 100 µM with IGROV1 ovarian. The TGI in the assay on SF-295 CNS was 55.9 µM; with HT29 colon, 46 µM; in the assay on MDA-MB-435, more than 100 µM; in the assay with KM12 colon, more than 100 µM; with PC-3 prostate, 48.7 µM; in the assay on OVCAR-3 ovarian it was 52 µM. Moreover, the TGI in the assay with NCI-H23 lung was 47.2 µM; in the assay on M14 melanoma it was more than 100 µM; in the assay on T-47D breast, more than 100 µM; with NCI/ADR-RES ovarian it was 45.4 µM.

Consider `C/C(=N\Nc1nc2ccccc2o1)c1ncccn1`, for which the TGI in the assay with SK-MEL-5 melanoma was found to be 13.9 µM; in the assay on CAKI-1 renal, 1.57 µM; in the assay on SN12C renal, 15.2 µM; in the assay with NCI-H226 lung, 0.64 µM; in the assay with BT-549 breast, 34.8 µM; in the assay on IGROV1 ovarian, 1.16 µM. In addition, the TGI amounted to 6.06 µM in the assay on SF-295 CNS; 45.4 µM in the assay on HT29 colon; 23.4 µM with MDA-MB-435; 30.2 µM with KM12 colon; 19.9 µM in the assay with PC-3 prostate; 5.87 µM in the assay with NCI-H23 lung. Further, the TGI in the assay with M14 melanoma was 0.295 µM; in the assay on T-47D breast, 28.5 µM; in the assay on NCI/ADR-RES ovarian, less than 0.0335 µM.

With `CCOC(=O)c1cc(-c2ccc([N+](=O)[O-])cc2)c([N+](=O)[O-])[nH]1`, the total growth inhibition concentration (TGI) is more than 10 µM in the assay with SN12C renal; 5.77 µM with NCI-H226 lung; more than 10 µM in the assay with K-562 leukemia; more than 10 µM with BT-549 breast; more than 10 µM in the assay with IGROV1 ovarian; 7.47 µM with SF-295 CNS. For the same molecule, the concentration for total growth inhibition (TGI) with HT29 colon was more than 10 µM; with MALME-3M melanoma, more than 10 µM; with MDA-MB-435, 9.3 µM; in the assay with KM12 colon, more than 10 µM; with OVCAR-3 ovarian, more than 10 µM; in the assay with NCI-H23 lung, 8.01 µM. Moreover, the results for the total growth inhibition concentration (TGI) in the assay with M14 melanoma, in the assay on T-47D breast and with NCI/ADR-RES ovarian were more than 10 µM, 9.95 µM and more than 10 µM, respectively.

What is called TGI is the concentration giving total growth inhibition. Higher therefore signals less potent growth arrest.
